The text below walks through data of US20130210752A1, “USING A NOVEL HIGH-THROUGHPUT YEAST CELL-BASED SCREENING PLATFORM TO IDENTIFY HMG-COA REDUCTASE INHIBITORS FROM NATURAL PRODUCTS AND THE USES OF SUCH INHIBITORS THEREOF” (HONG KONG BAPTIST UNIVERSITY, priority 2012, published 2013).

Test [1] deals with yeast cells lacking HMG1 and HMG2 with HMG1 overexpression plasmid (HMG-CoAR). In words: Yeast HMG-CoAR screening assay (yeast cell growth, OD660, with or without mevalonate). Conditions: for restoration of growth / reduction of inhibitory effect in the presence of mevalonate (compounds from Fraction 7): 300 μg/ml (7E1: 150 μg/ml), with mevalonate; for growth inhibition in the yeast cells: without mevalonate. The test is classed as cell-based, Saccharomyces cerevisiae. The source says: The present invention provides a screening method to identify potential HMG-CoAR inhibitors. The present method comprises providing a yeast strain which lacks HMG1 and HMG2 genes but containing a HMG1 overexpression plasmid, contacting said yeast strain with a test material. If the test material can inhibit the HMG1 activity or expression, the yeast cells will die. In order to validate the death of yeast cells is due to inhibition of HMG1 by the test material, the present invention also includes adding mevalonate compound, which is a downstream product of the HMG-CoAR. HMG-CoAR inhibitory activity of the test material is confirmed if the cell viability of the yeast strain is unaffected by the test material in the presence of mevalonate.
Saccharomyces cerevisiae (MATa ade2-101 his3-200 hmg1::LYS2 hmg2:his3 lys2-80 met TRP1 ura3-52 with overexpression of yeast HMG1 containing plasmid) were used in the screening assay. Cells were grown at 30° C. in YEPD, consisting of 10 g/L yeast extract, 20 g/L Bacto-peptone and 20 g/L dextrose.
Yeast cells were grown overnight in YEPD medium to ^˜7.0 OD660 at 30° C. Cells were then subculture to a fresh YEPD medium with starting ^˜0.1 starting OD660 and grew for another 8 hours to ^˜1.2 OD660. The assay was performed in a 96-well plate. 2.7×10^4 cells, tested drugs/chemicals and/or mevalonate were added to each well in a final volume of 100 μl. All experiments were performed in triplicate. Cells were then grown for 16 hours at 30° C. and the inhibitory effect of HMG-CoAR determined by measuring the cell density OD660 of each well by a micro-plate reader. Statin was used as a positive control and mevalonate supplement was used to validate the inhibitory effect of tested compounds on HMG-CoAR.

A further test has as its target T1, HMG-CoAR (Homo sapiens, UniProt P04035).
T1 construct: the oxidation of NADPH by the catalytic subunit of HMGR in the presence of the substrate of HMG-CoA; purchased Sigma, USA
T1 sequence (P04035 426-888 limits assumed): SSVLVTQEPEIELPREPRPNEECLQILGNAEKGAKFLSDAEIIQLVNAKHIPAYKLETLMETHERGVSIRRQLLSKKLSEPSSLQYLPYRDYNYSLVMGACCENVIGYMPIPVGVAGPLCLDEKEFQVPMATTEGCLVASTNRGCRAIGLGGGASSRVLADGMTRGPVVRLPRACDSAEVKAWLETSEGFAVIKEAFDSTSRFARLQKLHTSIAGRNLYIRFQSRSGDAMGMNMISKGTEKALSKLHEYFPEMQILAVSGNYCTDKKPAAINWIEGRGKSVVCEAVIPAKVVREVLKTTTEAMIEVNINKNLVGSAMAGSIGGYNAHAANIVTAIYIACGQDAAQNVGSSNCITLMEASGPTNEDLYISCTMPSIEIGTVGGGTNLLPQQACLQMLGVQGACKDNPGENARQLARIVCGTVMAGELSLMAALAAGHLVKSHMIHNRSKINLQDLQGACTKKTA
In words: In vitro HMG-CoAR activity assay (commercial kit, Sigma; NADPH oxidation at 340 nm). The test is classed as biochemical. Conditions: 60 μg/ml. Here is the method:
Commercial HMG-CoAR activity assay kit (Sigma, USA) is used in this experiment. The HMG-CoAR activity assay is based on the spectrophotometric measurement of the decrease in absorbance at 340 nm, which represents the oxidation of NADPH by the catalytic subunit of HMGR in the presence of the substrate of HMG-CoA. Pravastatin (Positive control), 7E1 or 7E2 are tested in this assay.
The HMG-CoAR activity was determined by the commercially available in vitro assay kit (Sigma, USA). The protocol of the assay was performed as described in the manufacture's manual. The HMG-CoAR activity assay is based on the spectrophotometric measurement of the decrease in absorbance at 340 nm, which represents the oxidation of NADPH by the catalytic subunit of HMGR in the presence of the substrate of HMG-CoA.
To validate the inhibitory effect of HMG-CoAR activity of compounds 7E1 and 7E2, in vitro HMG-CoAR activity is performed. Commercial HMG-CoAR activity assay kit (Sigma, USA) is used. The HMG-CoAR activity assay is based on the spectrophotometric measurement of the decrease in absorbance at 340 nm, which represents the oxidation of NADPH by the catalytic subunit of HMGR in the presence of the substrate of HMG-CoA. HMG-CoAR inhibitory effect of Pravastatin (Positive control), 7E1 or 7E2 are tested.

For `CC(C)=CCC[C@](C)(O[C@@H]1O[C@H](CO[C@@H]2OC[C@@H](O)[C@H](O)[C@H]2O)[C@@H](O)[C@H](O)[C@H]1O)[C@H]1CC[C@]2(C)[C@@H]1[C@H](O)C[C@@H]1[C@@]3(C)CC[C@H](O[C@@H]4O[C@H](CO)[C@@H](O)[C@H](O)[C@H]4O)C(C)(C)[C@@H]3CC[C@]12C` [Compound 7E2, gypenoside IX], in test [1], the “restoration of growth / reduction of inhibitory effect in the presence of mevalonate (compounds from Fraction 7)” value was “significant reduction of inhibitory effects”. Also, in test [1] (300 μg/ml), the “growth inhibition in the yeast cells” value stood at 80%. Further, on HMG-CoAR, the “inhibition of HMG-CoAR activity in vitro” value is given as “can inhibit the HMG-CoAR activity”.

Consider gypenoside XLV-Ed [Compound 7E1], for which the “growth inhibition in the yeast cells” value in test [1] (150 μg/ml) is recorded as 65%. The “restoration of growth / reduction of inhibitory effect in the presence of mevalonate (compounds from Fraction 7)” value in test [1] was “significant reduction of inhibitory effects”. Further, at HMG-CoAR, the “inhibition of HMG-CoAR activity in vitro” value is given as “can inhibit the HMG-CoAR activity”.
